In patent publication US10722444B2, “Stable hydrogel compositions including additives” (Allergan Industrie, SAS, priority 2014, dated 2020):

Legend:
[1] = Autoclaving stability of HA-based gel with additive (pH, extrusion force, rheology, appearance); format: physicochemical; settings: for ΔpH / ΔTan δ (1 Hz): gel with additive minus gel without
Protocol: Stability of a hydrogel composition disclosed herein can be determined by subjecting a hydrogel composition to a heat treatment, such as, e.g., steam sterilization at normal pressure or under pressure (e.g., autoclaving). Preferably the heat treatment is carried out at a temperature of at least about 100° C. for between about one minute and about 15 minutes. Substantial stability of a hydrogel composition disclosed herein can be evaluated 1) by determining the change in the extrusion force (ΔF) of a hydrogel composition disclosed herein after sterilization, where the change in extrusion force less 2N is indicative of a substantially stable hydrogel composition as measured by (the extrusion force of a hydrogel composition with the specified additives) minus (the extrusion force of the a hydrogel composition without the added additives); and/or 2) by determining the change in rheological properties of a hydrogel composition disclosed herein after sterilization, where the change in tan δ 1 Hz of less than 0.1 is indicative of a substantially stable hydrogel composition as measured by Δ Tan δ 1 Hz=(tan δ 1 Hz of gel formulation with additives) minus (tan δ 1 Hz of gel formulation without additives). As such, a substantially stable hydrogel composition disclosed herein retains one or more of the following characteristics after sterilization: homogeneousness, extrusion force, cohesiveness, hyaluronan concentration, agent(s) concentration, osmolarity, pH, or other rheological characteristics such as tan δ.
(§1) Reminder for stability assessment with extrusion force: ΔF (F gel with additive −F gel without additive)<2N
Reminder for stability assessment with rheology: ΔTan δ (Tan δ 1 Hz gel with additive −Tan δ 1 Hz gel without additive)<0.1
Caffeic acid, at a concentration of 0.6%,(w/w), was incorporated into a HA-based gel matrix at 24 mg/g containing 5% of uncrosslinked HA. The gel formulated was autoclaved.
Inoveol® CAFA (supplied by Libragen), (INCI name: Aqua (and) Caffeyl Glucoside), a derivative of caffeic acid, at a concentration of 0.5% (w/w) of commercial solution, was incorporated into a HA-based gel matrix containing a viscoelastic portion. The gel formulated was autoclaved.
The gel formulated was autoclaved.

[2] = Long term stability / accelerated aging at 45° C. of HA-based gel with additive; format: physicochemical; settings: for ΔpH / ΔTan δ (1 Hz): 0.6% (w/w) caffeic acid gel of Example 1 vs HA-based gel matrix without additives
Protocol: Long term stability of a hydrogel composition disclosed herein can be determined by subjecting a hydrogel composition to a heat treatment, such as, e.g., storage in an about 45° C. environment for about 60 days. Long term stability of a hydrogel composition disclosed herein can be evaluated 1) by assessing the clarity and color of a hydrogel composition after the 45° C. heat treatment, with a clear and uncolored hydrogel composition being indicative of a substantially stable hydrogel composition; 2) by determining the change in the extrusion force (ΔF) of a hydrogel composition disclosed herein after the 45° C. heat treatment, where the change in extrusion force less 2N is indicative of a substantially stable hydrogel composition as measured by (the extrusion force of a hydrogel composition with the specified additives before and after the 45° C. heat treatment) minus (the extrusion force of the a hydrogel composition without the specified additives before and after the 45° C. heat treatment); and 3) by determining the change in rheological properties of a hydrogel composition disclosed herein after sterilization, where the change in tan δ 1 Hz of less than 0.1 is indicative of a substantially stable hydrogel composition as measured by Δ Tan δ 1 Hz=(tan δ 1 Hz of gel formulation with the specified additives before and after the 45° C. heat treatment) minus (tan δ 1 Hz of gel formulation without the specified additives before and after the 45° C. heat treatment). As such, a long term stability of a hydrogel composition disclosed herein is evaluated by retention of one or more of the following characteristics after the 45° C. heat treatment: clarity (transparency and translucency), homogeneousness, and cohesiveness.
as §1
Reminder for stability assessment with rheology: ΔTan δ (Tan δ 1 Hz gel with additive −Tan δ 1 Hz gel without additive)<0.1 […]
The formulation prepared in Example 3 was subjected to accelerated aging or accelerated degradation in order to test the stability of the gel. […]

[3] = after autoclaving, 0.6% (w/w) caffeic acid in HA-based gel matrix at 24 mg/g containing 5% uncrosslinked HA
[4] = before autoclaving, 0.6% (w/w) caffeic acid in HA-based gel matrix at 24 mg/g containing 5% uncrosslinked HA
[5] = after 30 days at 45° C., 0.6% (w/w) caffeic acid gel of Example 1

appearance of the gel compared with before autoclaving [1, 3]: similar
ΔpH [1, 3]: 0.55
ΔTan δ (1 Hz) [1, 3]: 0.02
appearance of the gel [1, 4]: clear and brown
ΔpH [1, 4]: 0.18
ΔTan δ (1 Hz) [1, 4]: −0.003
ΔpH ([2]; 10 days at 45° C.): 1.05
ΔTan δ (1 Hz) ([2]; 10 days at 45° C.): 0.0560
ΔpH ([2]; 20 days at 45° C.): 0.90
ΔTan δ (1 Hz) ([2]; 20 days at 45° C.): 0.077
ΔpH ([2]; 30 days at 45° C.): 1.06
ΔTan δ (1 Hz) ([2]; 30 days at 45° C.): 0.144
colour of the gel [2, 5]: dark brown
physical analysis of the gel, finding [2, 5]: degradation of the formulation
SMILES: O=C(O)/C=C/c1ccc(O)c(O)c1 [Caffeic acid]
extrusion analysis finding ([1]; autoclaved gel with 0.6% (w/w) caffeic acid): beginning of degradation of the uncrosslinked hyaluronic acid
